Among the data in US20260116868A1 (Arcus Biosciences, Inc., priority 2023, published 2026) are IC50 values, retold here.

The target of this test is T1, Cbl-b (Homo sapiens, UniProt Q13191).
T1 construct: biotin (biotinylated protein)
The experiment in a line: Cbl-b probe displacement HTRF binding assay. The conditions noted are these: 0.4 nM Cbl-b, 150 nM BODIPY probe. The protocol: The affinity with which compounds of the present disclosure bind to Cbl-b was assessed using probe displacement homologous time resolved fluorescence (HTRF) assays. The assays used a BODIPY™ conjugated probe (Example 54 from WO 2020264398) and biotinylated Cbl-b. The assays were performed in assay buffer consisting of 20 mM Hepes, 150 mM NaCl, 0.01% Triton X-100, 0.5 mM TCEP, 0.01% BSA. On the day of the assay, a 20 point, 1:2 master serial dilution of each compound was prepared in DMSO to span a final concentration range of […] to 0 nM. Two hundred nanoliters of diluted compound was added to each well of a 384-well plate. Fifteen microliters of biotinylated- Cbl-b resuspended in assay buffer were added to each well and the plate incubated for 60 minutes at room temperature prior to addition of 5 μL of BODIPY™ probe in assay buffer. Final assay conditions included 0.4 nM of Cbl-b and 150 nM of BODIPY™ probe. After a further 15 minutes of incubation at room temperature, 5 μl of Streptavidin-Terbium cryptate reagent at 5-fold final concentration was added to each well of the 384-well plate. Binding of a probe to Cbl-b results in an increase of HTRF signal. HTRF signal was measured by Envision plate reader, while competition of a compound of the present disclosure with probe results in a decrease of signal. Percentage maximum activity in each test well was calculated based on DMSO (maximum activity, 0% displacement) and no protein control wells (baseline activity, 100% displacement). Binding affinity was determined from a dose response curve fitted using a standard four parameter fit equation. See Table 7 for data for compounds (Cbl-b Binding (IC50)).

The structures appear in SMILES notation. pIC50: −log10 of the molar value.

T1 sequence (Q13191 whole entry, species assumed): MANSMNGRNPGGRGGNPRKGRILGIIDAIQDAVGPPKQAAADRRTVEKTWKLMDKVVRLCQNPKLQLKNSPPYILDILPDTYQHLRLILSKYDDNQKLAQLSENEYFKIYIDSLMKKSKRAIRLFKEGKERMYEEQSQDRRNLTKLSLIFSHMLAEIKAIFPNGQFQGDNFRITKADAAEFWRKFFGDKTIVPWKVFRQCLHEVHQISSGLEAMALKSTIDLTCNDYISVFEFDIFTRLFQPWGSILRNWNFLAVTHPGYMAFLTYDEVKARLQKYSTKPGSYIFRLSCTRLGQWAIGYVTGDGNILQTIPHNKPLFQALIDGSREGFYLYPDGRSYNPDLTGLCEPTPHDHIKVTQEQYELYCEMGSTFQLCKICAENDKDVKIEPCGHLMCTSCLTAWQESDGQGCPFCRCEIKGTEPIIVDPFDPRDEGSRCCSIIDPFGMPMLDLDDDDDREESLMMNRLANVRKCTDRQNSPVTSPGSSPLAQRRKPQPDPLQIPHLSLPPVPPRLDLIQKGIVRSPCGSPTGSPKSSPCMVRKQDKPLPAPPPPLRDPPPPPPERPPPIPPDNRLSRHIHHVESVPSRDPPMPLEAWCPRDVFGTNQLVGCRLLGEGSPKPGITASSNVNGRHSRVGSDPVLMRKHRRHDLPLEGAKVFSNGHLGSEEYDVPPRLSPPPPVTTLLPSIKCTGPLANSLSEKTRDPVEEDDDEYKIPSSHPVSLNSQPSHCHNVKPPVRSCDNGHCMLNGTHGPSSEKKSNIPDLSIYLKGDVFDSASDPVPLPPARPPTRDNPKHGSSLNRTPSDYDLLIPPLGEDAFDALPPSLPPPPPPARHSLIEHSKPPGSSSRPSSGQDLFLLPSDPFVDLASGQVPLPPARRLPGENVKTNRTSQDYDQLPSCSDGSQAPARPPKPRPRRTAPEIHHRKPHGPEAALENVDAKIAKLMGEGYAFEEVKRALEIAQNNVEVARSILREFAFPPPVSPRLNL

Take `C=CCn1cc(CN2CCC[C@H](C)C2)cc(C(=O)Nc2cccc(C3(c4nncn4C)CC(C)C3)c2)c1=O` (mixture of isomers) [Example 77, N-[3-[3-methyl-1-(4-methyl-1,2,4-triazol-3-yl)cyclobutyl]phenyl]-5-[[(3S)-3-methylpiperidin-1-yl]methyl]-2-oxo-1-prop-2-enylpyridine-3-carboxamide]: the pIC50 was > 7.00. On to `CC(C)Oc1cc(-c2ccc(C#N)cc2C(=O)N2CC(F)(F)C2)cc(NC(=O)c2cc(CNC(C)C3CC3)cn(C3CC3)c2=O)n1` (stereo in doubt) [Example 140, N-(4-{4-cyano-2-[(3,3-difluoro-1-azetidinyl)carbonyl]phenyl}-6-isopropoxy-2-pyridyl)-1-cyclopropyl-5-{[(S)-1-cyclopropylethylamino]methyl}-2-oxo-1,2-dihydronicotinamide], for which the pIC50 is > 7.00. In the case of `CC(C)Oc1cc(-c2ccc(C#N)cc2C(=O)N2CC(F)(F)C2)cc(NC(=O)c2cc(CNC[C@@H]3CCCO3)cn(C3CC3)c2=O)n1` [Example 96, N-(4-{4-cyano-2-[(3,3-difluoro-1-azetidinyl)carbonyl]phenyl}-6-isopropoxy-2-pyridyl)-5-[({[(S)-tetrahydro-2-furyl]methyl}amino)methyl]-1-cyclopropyl-2-oxo-1,2-dihydronicotinamide] it was > 7.00; in that of `CC(C)CNCc1cc(C(=O)Nc2cc(-c3ccc(C#N)cc3C(=O)N3CC(F)(F)C3)cc(OC(C)C)n2)c(=O)n(C2CC2)c1` [Example 97, N-(4-{4-cyano-2-[(3,3-difluoro-1-azetidinyl)carbonyl]phenyl}-6-isopropoxy-2-pyridyl)-1-cyclopropyl-5-[(isobutylamino)methyl]-2-oxo-1,2-dihydronicotinamide], > 7.00; in that of `CC(C)Oc1cc(-c2ccc(OC(F)F)cc2C(=O)N2CC(F)(F)C2)cc(NC(=O)c2cc(CN[C@@H](C)C3CCC3)cn(C3CC3)c2=O)n1` [Example 98], > 7.00. As to `CC(C)CNCc1cc(C(=O)Nc2cc(-c3ccc(OC(F)F)cc3C(=O)N3CC(F)(F)C3)cc(OC(C)C)n2)c(=O)n(C2CC2)c1` [Example 99, N-(4-{2-[(3,3-difluoro-1-azetidinyl)carbonyl]-4-difluoromethoxyphenyl}-6-isopropoxy-2-pyridyl)-1-cyclopropyl-5-[(isobutylamino)methyl]-2-oxo-1,2-dihydronicotinamide], the pIC50 is > 7.00. Next, `CC(C)Oc1cc(-c2ccc(C#N)cc2C(=O)N2CC(F)(F)C2)cc(NC(=O)c2cc(CN[C@@H](C)C3CCC3)cn(C)c2=O)n1` [Example 100, N-[4-[4-cyano-2-(3,3-difluoroazetidine-1-carbonyl)phenyl]-6-propan-2-yloxypyridin-2-yl]-5-[[[(1S)-1-cyclobutylethyl]amino]methyl]-1-methyl-2-oxopyridine-3-carboxamide]: > 7.00; `CC(C)Oc1cc(-c2c(F)cc(C#N)cc2C(=O)N2CC(F)(F)C2)cc(NC(=O)c2cc(CNC[C@@H]3CCCO3)cn(C3CC3)c2=O)n1` [Example 101, N-[4-[4-cyano-2-(3,3-difluoroazetidine-1-carbonyl)-6-fluorophenyl]-6-propan-2-yloxypyridin-2-yl]-1-cyclopropyl-2-oxo-5-[[[(2S)-oxolan-2-yl]methylamino]methyl]pyridine-3-carboxamide]: > 7.00; `CCNc1cc(-c2ccc(OC(F)F)cc2C(=O)N2CC(F)C2)cc(NC(=O)c2cc(CN[C@@H](C)C3CCC3)cn(C)c2=O)n1` [Example 103]: > 7.00. Turning to `CCOc1cc(-c2ccc(OC(F)F)cc2C(=O)N2CC(F)C2)cc(NC(=O)c2cc(CNC[C@H](C)OC)cn(C3CC3)c2=O)n1` [Example 104, N-(4-{4-Difluoromethoxy-2-[(3-fluoro-1-azetidinyl)carbonyl]phenyl}-6-ethoxy-2-pyridyl)-5-{[(S)-2-methoxypropylamino]methyl}-1-cyclopropyl-2-oxo-1,2-dihydronicotinamide], the pIC50 is > 7.00.

`Cn1cc(CNC[C@@H]2CCCCO2)cc(C(=O)Nc2cc(-c3ccc(Cl)cc3C(=O)N3CC(F)(F)C3)cc(C3CC3)n2)c1=O` [Example 108, N-[4-[4-chloro-2-(3,3-difluoroazetidine-1-carbonyl)phenyl]-6-cyclopropylpyridin-2-yl]-1-methyl-5-[[[(2S)-oxan-2-yl]methylamino]methyl]-2-oxopyridine-3-carboxamide]: the pIC50 was > 7.00.

Turning to `CC(C)CNCc1cc(C(=O)Nc2cc(-c3ccc(OC(F)F)cc3C(=O)N3CC(F)(F)C3)cc(C3CC3)n2)c(=O)n(C)c1` [Example 109, N-[6-cyclopropyl-4-[2-(3,3-difluoroazetidine-1-carbonyl)-4-(difluoromethoxy)phenyl]pyridin-2-yl]-1-methyl-5-[(2-methylpropylamino)methyl]-2-oxopyridine-3-carboxamide], the negative-log IC50 (pIC50) was > 7.00. As to `Cn1cc(CNC[C@@H]2COCCO2)cc(C(=O)Nc2cc(-c3ccc(OC(F)F)cc3C(=O)N3CC(F)(F)C3)cc(C3CC3)n2)c1=O` [Example 110, N-(6-cyclopropyl-4-{2-[(3,3-difluoro-1-azetidinyl)carbonyl]-4-difluoromethoxyphenyl}-2-pyridyl)-5-[({[(R)-1,4-dioxan-2-yl]methyl}amino)methyl]-1-methyl-2-oxo-1,2-dihydronicotinamide], the pIC50 is > 7.00.

For `Cn1cc(CNC[C@@H]2CCCCO2)cc(C(=O)Nc2cc(-c3ccc(OC(F)F)cc3C(=O)N3CC(F)(F)C3)cc(C3CC3)n2)c1=O` [Example 111, N-[6-cyclopropyl-4-[2-(3,3-difluoroazetidine-1-carbonyl)-4-(difluoromethoxy)phenyl]pyridin-2-yl]-1-methyl-5-[[[(2S)-oxan-2-yl]methylamino]methyl]-2-oxopyridine-3-carboxamide], the pIC50 was > 7.00. In the case of `CC(C)Oc1cc(-c2ccc(OC(F)F)cc2C(=O)N2CC(F)(F)C2)cc(NC(=O)c2cc(CN[C@@H](C)C3CCC3)cn(C)c2=O)n1` [Example 112] it was > 7.00; in that of `CO[C@@H](C)CNCc1cc(C(=O)Nc2cc(-c3ccc(OC(F)F)cc3C(=O)N3CC(F)(F)C3)cc(OC(C)C)n2)c(=O)n(C)c1` [Example 113, N-(4-{2-[(3,3-difluoro-1-azetidinyl)carbonyl]-4-difluoromethoxyphenyl}-6-isopropoxy-2-pyridyl)-5-{[(S)-2-methoxypropylamino]methyl}-1-methyl-2-oxo-1,2-dihydronicotinamide], > 7.00.

Regarding `CC(C)Oc1cc(-c2ccc(OC(F)F)cc2C(=O)N2CC(F)(F)C2)cc(NC(=O)c2cc(CN[C@@H](C)C(C)C)cn(C)c2=O)n1` [Example 114], the pIC50 was > 7.00. Next, `CC(C)Oc1cc(-c2ccc(OC(F)F)cc2C(=O)N2CC(F)(F)C2)cc(NC(=O)c2cc(CN[C@@H](C)C3CC3)cn(C)c2=O)n1` [Example 115, N-(4-{2-[(3,3-difluoro-1-azetidinyl)carbonyl]-4-difluoromethoxyphenyl}-6-isopropoxy-2-pyridyl)-5-{[(S)-1-cyclopropylethylamino]methyl}-1-methyl-2-oxo-1,2-dihydronicotinamide]: > 7.00; `CO[C@@H](C)[C@H](C)NCc1cc(C(=O)Nc2cc(-c3ccc(OC(F)F)cc3C(=O)N3CC(F)(F)C3)cc(OC(C)C)n2)c(=O)n(C)c1` [Example 116, N-(4-{2-[(3,3-difluoro-1-azetidinyl)carbonyl]-4-difluoromethoxyphenyl}-6-isopropoxy-2-pyridyl)-5-{[(1S,2S)-2-methoxy-1-methylpropylamino]methyl}-1-methyl-2-oxo-1,2-dihydronicotinamide]: > 7.00; `CO[C@@H](C)CNCc1cc(C(=O)Nc2cc(-c3ccc(C#N)cc3C(=O)N3CC(F)(F)C3)cc(OC(C)C)n2)c(=O)n(C)c1` [Example 117, N-(4-{4-cyano-2-[(3,3-difluoro-1-azetidinyl)carbonyl]phenyl}-6-isopropoxy-2-pyridyl)-5-{[(S)-2-methoxypropylamino]methyl}-1-methyl-2-oxo-1,2-dihydronicotinamide]: > 7.00. Next, `CCOc1cc(-c2c(F)cc(C#N)cc2C(=O)N2CC(F)(F)C2)cc(NC(=O)c2cc(CNC[C@@H]3CCCO3)cn(C)c2=O)n1` [Example 118, N-[4-[4-cyano-2-(3,3-difluoroazetidine-1-carbonyl)-6-fluorophenyl]-6-ethoxypyridin-2-yl]-1-methyl-2-oxo-5-[[[(2S)-oxolan-2-yl]methylamino]methyl]pyridine-3-carboxamide]: > 7.00. With `CCOc1cc(-c2c(F)cc(C#N)cc2C(=O)N2CC(F)(F)C2)cc(NC(=O)c2cc(CN[C@@H](C)C3CC3)cn(C)c2=O)n1` [Example 119, N-[4-[4-cyano-2-(3,3-difluoroazetidine-1-carbonyl)-6-fluorophenyl]-6-ethoxypyridin-2-yl]-5-[[[(1S)-1-cyclopropylethyl]amino]methyl]-1-methyl-2-oxopyridine-3-carboxamide], the pIC50 is > 7.00.
